This note sets out measurements from ChEMBL document CHEMBL1201862, “PubChem BioAssay data set” (2004).

SMILES strings stand for the structures. Calls of active or inactive are those of the source.

Format in all cases: functional
In assay [1] the target is T1, Orexin/Hypocretin receptor type 1 (Homo sapiens, UniProt O43613).
T1 sequence (O43613 whole entry): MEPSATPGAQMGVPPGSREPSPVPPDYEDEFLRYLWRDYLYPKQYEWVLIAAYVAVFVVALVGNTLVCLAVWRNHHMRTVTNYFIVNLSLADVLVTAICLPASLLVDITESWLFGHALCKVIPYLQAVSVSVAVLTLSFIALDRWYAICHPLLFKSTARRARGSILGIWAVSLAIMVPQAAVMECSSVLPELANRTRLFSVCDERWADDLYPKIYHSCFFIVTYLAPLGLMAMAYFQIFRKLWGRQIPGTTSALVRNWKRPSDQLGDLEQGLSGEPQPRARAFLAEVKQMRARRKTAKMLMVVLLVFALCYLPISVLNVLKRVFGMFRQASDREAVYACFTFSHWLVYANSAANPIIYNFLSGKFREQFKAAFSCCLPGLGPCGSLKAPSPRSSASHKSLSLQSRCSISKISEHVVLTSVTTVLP
Description: Homogeneous Time Resolved Fluorescence (HTRF)-based cell-based high throughput dose response assay for antagonists of the orexin 1 receptor (OX1R; HCRTR1). [Related pubchem assays (depositor defined):AID434989, AID435008, AID463079, AID485270, AID492963, AID492964, AID492965, AID493232, AID504717, AID504718]. On the technique in general: In TR-FRET formats the signal depends on donor and acceptor labels being close together.

A short description of assay [2]: Counterscreen for antagonists of the orexin 1 receptor (OX1R; HCRTR1): Fluorescence-based cell-based high throughput dose response assay to identify antagonists of the parental CHO cell line. [Related pubchem assays (depositor defined):AID434989, AID435008, AID463079, AID485270, AID492963, AID492964, AID492965, AID493232, AID504699, AID504701]. In general terms: Counterscreens check selectivity or assay interference.

The target in assay [3] is T2, Orexin receptor type 2 (Homo sapiens, UniProt O43614).
T2 sequence (O43614 whole entry): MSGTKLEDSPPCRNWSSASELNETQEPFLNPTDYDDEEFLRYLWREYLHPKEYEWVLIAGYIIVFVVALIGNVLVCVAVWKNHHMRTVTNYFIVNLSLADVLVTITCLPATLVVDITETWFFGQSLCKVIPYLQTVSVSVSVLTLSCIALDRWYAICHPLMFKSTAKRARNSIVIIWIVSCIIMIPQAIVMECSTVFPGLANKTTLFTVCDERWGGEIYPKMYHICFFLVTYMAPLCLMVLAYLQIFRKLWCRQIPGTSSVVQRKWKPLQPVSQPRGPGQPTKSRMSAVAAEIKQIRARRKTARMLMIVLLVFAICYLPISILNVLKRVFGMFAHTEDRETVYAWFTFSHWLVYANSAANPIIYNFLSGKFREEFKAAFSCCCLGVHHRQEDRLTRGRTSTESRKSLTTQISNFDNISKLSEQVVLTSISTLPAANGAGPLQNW
As to the kind of experiment: Counterscreen assay for antagonists of the orexin 1 receptor (OX1R; HCRTR1): Fluorescence-based cell-based dose response assay for antagonists of the orexin 2 receptor (OX2R; HCRTR2), run by assay provider.

The test system of a further assay is CHO-K1. Description: Counterscreen for antagonists of the orexin 1 receptor (OX1R; HCRTR1): Homogeneous time resolved fluorescence (HTRF)-based cell-based dose response assay to identify antagonists of the parental CHO-K1 cell line. [Related pubchem assays (depositor defined):AID434989, AID435008, AID463079, AID485270, AID492963, AID492964, AID492965, AID493232, AID504699, AID504701]. The settings on record: Cricetulus griseus.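 Further: potency for inhibition of ATP-stimulated IP1 production as antagonists.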

Assay [4] deals with T1, Orexin/Hypocretin receptor type 1. Description: Fluorescence-based cell-based high throughput dose response assay for antagonists of the orexin 1 receptor (OX1R; HCRTR1). [Related pubchem assays (depositor defined):AID434989, AID435008, AID463079, AID485270, AID492963, AID492964, AID492965, AID493232, AID504717, AID504718].
For assay [5], the target named is T2, Orexin receptor type 2. Description: Counterscreen assay for antagonists of the orexin 1 receptor (OX1R; HCRTR1): Homogeneous Time Resolved Fluorescence (HTRF)-based cell-based dose response assay for antagonists of the orexin 2 receptor (OX2R; HCRTR2), run by assay provider.
A further assay has as its target Protein Wnt-3a (Mus musculus, UniProt P27467). As to the kind of experiment: Wnt3a-driven reporter signaling inhibition, dose response, selectivity assay for Gli-SUFU antagonist project, Wnt-LIGHT cells, luminescence (AID 651570).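 Further: Wnt-LIGHT reporter cells stimulated with conditioned medium from Wnt3a-producing cells.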 Particulars: read-out: IC50_Mean.
Assay [6] in a line: Shn3 3'UTR reporter inhibitors, dose response, cell-based, Clone20 osteoblasts, firefly luciferase, cherry-picked (AID 624132).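 Further: firefly luciferase luminescence from reporter carrying the Shn3 3'UTR in osteoblasts.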
Assay [7] in a line: control 3'UTR Renilla luciferase suppression, dose response, counter-screen for Shn3 inhibitor project, cell-based, Clone20-Shn3RL, cherry-picked (AID 624133).
Assay [8] can be described thus: Luminescence-based cell-based high throughput dose response assay to identify activators of the DAF-12 from the parasite S. stercoralis (ssDAF-12).
The target in assay [9] is T3, Oxysterols receptor LXR-beta (Homo sapiens, UniProt P55055).
T3 sequence (P55055 whole entry): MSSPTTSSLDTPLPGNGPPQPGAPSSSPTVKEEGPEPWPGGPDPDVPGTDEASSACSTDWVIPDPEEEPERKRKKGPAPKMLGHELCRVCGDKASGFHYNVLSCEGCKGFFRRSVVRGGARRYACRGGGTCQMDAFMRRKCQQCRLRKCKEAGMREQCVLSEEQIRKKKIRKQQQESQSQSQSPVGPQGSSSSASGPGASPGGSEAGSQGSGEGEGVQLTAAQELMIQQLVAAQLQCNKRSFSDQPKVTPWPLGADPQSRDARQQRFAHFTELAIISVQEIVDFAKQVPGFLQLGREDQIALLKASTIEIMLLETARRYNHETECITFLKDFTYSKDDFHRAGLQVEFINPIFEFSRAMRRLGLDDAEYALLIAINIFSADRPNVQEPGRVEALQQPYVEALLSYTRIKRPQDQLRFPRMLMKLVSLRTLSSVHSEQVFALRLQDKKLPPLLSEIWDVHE
Description: LXR agonists, Gal4 luciferase reporter, dose response, counter-screen for ssDAF-12 agonist project, cell-based, luminescence, HEK293, S. stercoralis campaign (AID 720737). The settings on record: read-out: IC50 (the source's name).

The target in the next assay is T4, Protein RecA (Mycobacterium tuberculosis, UniProt P9WHJ3).
T4 sequence (P9WHJ3 whole entry): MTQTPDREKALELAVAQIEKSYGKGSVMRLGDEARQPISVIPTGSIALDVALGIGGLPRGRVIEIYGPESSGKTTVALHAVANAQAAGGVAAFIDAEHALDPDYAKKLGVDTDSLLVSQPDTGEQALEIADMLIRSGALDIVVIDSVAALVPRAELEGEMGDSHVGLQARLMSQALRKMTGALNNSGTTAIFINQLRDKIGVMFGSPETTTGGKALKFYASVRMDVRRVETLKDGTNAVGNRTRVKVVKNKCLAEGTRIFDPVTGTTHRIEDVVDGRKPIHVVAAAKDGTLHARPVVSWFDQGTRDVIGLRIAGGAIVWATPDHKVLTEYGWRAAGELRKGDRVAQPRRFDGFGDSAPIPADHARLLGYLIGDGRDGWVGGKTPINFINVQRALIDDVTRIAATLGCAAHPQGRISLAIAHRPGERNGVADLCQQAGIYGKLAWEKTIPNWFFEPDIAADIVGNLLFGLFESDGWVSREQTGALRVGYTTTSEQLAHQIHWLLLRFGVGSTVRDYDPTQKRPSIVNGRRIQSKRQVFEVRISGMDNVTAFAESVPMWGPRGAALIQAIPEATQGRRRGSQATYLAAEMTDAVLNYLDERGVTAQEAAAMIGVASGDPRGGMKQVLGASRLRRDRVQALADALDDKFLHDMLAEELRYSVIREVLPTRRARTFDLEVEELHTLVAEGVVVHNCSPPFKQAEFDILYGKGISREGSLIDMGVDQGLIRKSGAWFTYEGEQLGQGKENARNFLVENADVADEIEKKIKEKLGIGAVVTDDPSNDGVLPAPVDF
As to the kind of experiment: Fluorescence Cell-Free Homogeneous Dose Retest to Identify Inhibitors of RecA-Intein Splicing Activity. [Related pubchem assays (depositor defined):AID2097, AID2223, AID489010, AID492950].

In assay [10] the target is T5, Replicative DNA helicase DnaB (Mycobacterium tuberculosis, UniProt P9WMR3).
T5 sequence (P9WMR3 whole entry): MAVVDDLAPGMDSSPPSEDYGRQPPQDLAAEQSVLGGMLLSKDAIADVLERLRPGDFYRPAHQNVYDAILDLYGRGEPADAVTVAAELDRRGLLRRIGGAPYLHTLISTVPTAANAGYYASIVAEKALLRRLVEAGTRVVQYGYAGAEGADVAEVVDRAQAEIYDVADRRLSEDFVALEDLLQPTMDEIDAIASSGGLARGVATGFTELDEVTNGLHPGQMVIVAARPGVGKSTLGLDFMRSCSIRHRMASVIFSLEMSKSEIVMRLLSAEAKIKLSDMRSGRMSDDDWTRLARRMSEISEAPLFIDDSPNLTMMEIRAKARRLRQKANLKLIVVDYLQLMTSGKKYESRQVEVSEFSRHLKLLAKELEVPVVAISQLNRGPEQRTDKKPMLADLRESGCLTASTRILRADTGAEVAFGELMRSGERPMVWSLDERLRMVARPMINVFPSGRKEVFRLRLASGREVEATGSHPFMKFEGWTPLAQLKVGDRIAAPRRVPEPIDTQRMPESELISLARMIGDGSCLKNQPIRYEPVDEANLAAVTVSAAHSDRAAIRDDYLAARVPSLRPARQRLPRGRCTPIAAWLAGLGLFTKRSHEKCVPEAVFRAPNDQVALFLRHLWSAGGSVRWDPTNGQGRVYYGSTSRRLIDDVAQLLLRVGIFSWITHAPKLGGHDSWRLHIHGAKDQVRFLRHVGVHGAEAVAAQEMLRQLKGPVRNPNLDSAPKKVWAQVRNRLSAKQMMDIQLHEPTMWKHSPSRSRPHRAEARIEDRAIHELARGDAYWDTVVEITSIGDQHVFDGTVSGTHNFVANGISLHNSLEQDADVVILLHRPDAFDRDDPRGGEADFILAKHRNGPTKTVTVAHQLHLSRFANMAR
As to the kind of experiment: DnaB intein splicing inhibitors, dose response, biochemical, cell-free fluorescence (AID 449749).

The nature of assay [11]: A Cell Based Secondary Assay to Explore Cytotoxicity in THP-1 Cells of Compounds that Modulate Mycobacterium tuberculosis in Media Containing Glycerol versus Media without Glycerol (2).
The nature of assay [12]: Vero cell cytotoxicity, cytotoxicity control for M. tuberculosis inhibitor project, purified and synthesized samples, set 3 (AID 504684). Particulars: […].

Protein Wnt-3a, sequence (P27467 whole entry): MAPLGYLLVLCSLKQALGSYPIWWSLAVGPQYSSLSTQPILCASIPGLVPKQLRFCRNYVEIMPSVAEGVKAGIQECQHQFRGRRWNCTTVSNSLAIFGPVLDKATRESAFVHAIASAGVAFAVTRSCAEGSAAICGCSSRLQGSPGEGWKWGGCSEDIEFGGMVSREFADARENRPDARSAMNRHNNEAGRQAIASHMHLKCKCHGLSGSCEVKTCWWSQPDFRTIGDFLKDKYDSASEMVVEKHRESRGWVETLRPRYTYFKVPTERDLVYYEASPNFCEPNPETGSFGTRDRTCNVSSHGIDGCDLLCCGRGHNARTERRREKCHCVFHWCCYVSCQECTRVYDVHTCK

Take `COc1cc(OC)c(-c2nc3ccccc3s2)cc1OC`: the IC50 in assay [1] was 0.46 µM (active); in assay [2], > 49.7 µM (inactive); on Orexin receptor type 2 [3] it was > 88.8 µM (inactive); with CHO-K1 it was > 66.2 µM (inactive); in assay [4], 5.47 µM (active); on Orexin receptor type 2 [5] it was > 50 µM (inactive).
The AC50 is the concentration at which the activity in the assay is half-maximal. For the molecule `C=CCOc1nc2c(c(=O)n(C)c(=O)n2C)n1Cc1ccc(Cl)cc1`, the IC50 on Protein Wnt-3a was 1.88 µM (active). For the same molecule, the concentration at half-maximal activity (AC50) in assay [6] is 1.03 µM (active); in [7], 2.02 µM (active).
In the case of `COc1ccc(-c2nn3c(-c4ccccc4)nnc3s2)cc1`, the IC50 in assay [1] is 2.44 µM (active); in assay [2], > 49.8 µM (inactive); on Orexin receptor type 2 [3], > 88.8 µM (inactive); in the assay with CHO-K1 it was > 66.2 µM (inactive); in assay [4], > 5.53 µM (active); at Orexin receptor type 2 [5], > 50 µM (inactive).
As to `Cc1ccc(NC(=O)c2ccc3ccccc3n2)nc1`, the IC50 in assay [1] is 1.64 µM (active); in [2], > 49.7 µM (inactive); on Orexin receptor type 2 [3], > 88.8 µM (inactive); in [8], > 67.5 µM (inactive); in the assay with CHO-K1 it was > 66.2 µM (inactive); in assay [4], 10.4 µM (inactive). Further, the IC50 at Orexin receptor type 2 [5] was 2.35 µM (active). Further, the EC50 in assay [9] was > 67.5 µM (inactive).
Broadly, the CC50 is the concentration giving 50% cytotoxicity. In the case of `O=C1C(Br)=Cc2cccc3cccc1c23`, at Protein RecA, the EC50 was 0.581 µM (active). Besides, in assay [10], the AC50 was > 380 µM (inactive). The CC50 in [11] was > 100 µM (active); in [12], 74.6 µM (active).
